In the NIST ThermoML archive (doi:10.1021/je500498m):

Assay: xn = mol fraction of the nth substance listed
Settings: for speed of sound: 100 kPa, Sing-around technique in a fixed-path interferometer; for speed of sound / viscosity / mass density: Liquid; for viscosity / mass density: 101 kPa; for viscosity: Falling or rolling sphere viscometry; for mass density: Vibrating tube method; for surface tension liquid-gas: 294.4 K, Pendant drop shape

CCCCCCCCCCCCCCCC [hexadecane] + Cc1ccccc1
Settings	mass density [kg/m3]	speed of sound [m/s]	viscosity [mPa·s]
293.15 K, x2 = 0	773.49	1357.3	3.44
293.15 K, x2 = 0.1002	776.71	1352.9	3.03
293.15 K, x2 = 0.2	780.38	1348.1	2.64
293.15 K, x2 = 0.3018	784.83	1343.1	2.28
293.15 K, x2 = 0.4001	789.87	1337.2	1.96
293.15 K, x2 = 0.5	796.1	1332	1.66
293.15 K, x2 = 0.6001	803.76	1326.5	1.4
293.15 K, x2 = 0.7005	813.44	1321.5	1.16
293.15 K, x2 = 0.8001	825.95	1318	0.94
293.15 K, x2 = 0.8999	842.77	1318	0.76
303.15 K, x2 = 0	766.55	1320	2.72
303.15 K, x2 = 0.1002	769.7	1315.5	2.42
303.15 K, x2 = 0.2	773.29	1310.6	2.14
303.15 K, x2 = 0.3018	777.64	1305.5	1.87
303.15 K, x2 = 0.4001	782.56	1299.4	1.63
303.15 K, x2 = 0.5	788.63	1293.9	1.4
303.15 K, x2 = 0.6001	796.11	1288	1.19
303.15 K, x2 = 0.7005	805.54	1282.4	1
303.15 K, x2 = 0.8001	817.73	1278.2	0.82
303.15 K, x2 = 0.8999	834.11	1277	0.67
313.15 K, x2 = 0	759.63	1283.3	–
313.15 K, x2 = 0.1002	762.7	1278.7	–
313.15 K, x2 = 0.2	766.2	1273.6	–
313.15 K, x2 = 0.3018	770.44	1268.4	–
313.15 K, x2 = 0.4001	775.24	1262.1	–
313.15 K, x2 = 0.5	781.15	1256.2	–
313.15 K, x2 = 0.6001	788.42	1250	–
313.15 K, x2 = 0.7005	797.59	1243.8	–
313.15 K, x2 = 0.8001	809.46	1238.8	–
313.15 K, x2 = 0.8999	825.38	1236.4	–
323.15 K, x2 = 0	752.71	1247.3	1.82
323.15 K, x2 = 0.1002	755.7	1242.6	1.65
323.15 K, x2 = 0.2	759.11	1237.4	1.49
323.15 K, x2 = 0.3018	763.23	1231.9	1.33
323.15 K, x2 = 0.4001	767.89	1225.4	1.18
323.15 K, x2 = 0.5	773.64	1219.2	1.04
323.15 K, x2 = 0.6001	780.71	1212.5	0.9
323.15 K, x2 = 0.7005	789.6	1205.7	0.77
323.15 K, x2 = 0.8001	801.12	1199.9	0.64
323.15 K, x2 = 0.8999	816.6	1196.3	0.52
333.15 K, x2 = 0	745.79	1212	1.54
333.15 K, x2 = 0.1002	748.7	1207.1	1.4
333.15 K, x2 = 0.2	752	1201.7	1.27
333.15 K, x2 = 0.3018	756	1196	1.15
333.15 K, x2 = 0.4001	760.53	1189.2	1.03
333.15 K, x2 = 0.5	766.1	1182.7	0.9
333.15 K, x2 = 0.6001	772.93	1175.6	0.79
333.15 K, x2 = 0.7005	781.29	1168.2	0.67
333.15 K, x2 = 0.8001	792.74	1161.7	0.56
333.15 K, x2 = 0.8999	807.75	1156.7	0.47
343.15 K, x2 = 0	738.9	–	1.31
343.15 K, x2 = 0.1002	741.7	–	1.21
343.15 K, x2 = 0.2	744.9	–	1.1
343.15 K, x2 = 0.3018	748.9	–	1
343.15 K, x2 = 0.4001	753.2	–	0.89
343.15 K, x2 = 0.5	758.6	–	0.8
343.15 K, x2 = 0.6001	765.2	–	0.69
343.15 K, x2 = 0.7005	773.6	–	0.6
343.15 K, x2 = 0.8001	784.3	–	0.51
343.15 K, x2 = 0.8999	798.8	–	0.43
353.15 K, x2 = 0	731.8	–	1.13
353.15 K, x2 = 0.1002	734.5	–	1.05
353.15 K, x2 = 0.2	737.7	–	0.96
353.15 K, x2 = 0.3018	741.4	–	0.87
353.15 K, x2 = 0.4001	745.7	–	0.79
353.15 K, x2 = 0.5	750.9	–	0.7
353.15 K, x2 = 0.6001	757.2	–	0.61
353.15 K, x2 = 0.7005	765.3	–	0.54
353.15 K, x2 = 0.8001	775.7	–	0.46
353.15 K, x2 = 0.8999	789.7	–	0.39
363.15 K, x2 = 0	724.7	–	0.99
363.15 K, x2 = 0.1002	727.3	–	0.92
363.15 K, x2 = 0.2	730.4	–	0.85
363.15 K, x2 = 0.3018	733.9	–	0.77
363.15 K, x2 = 0.4001	738	–	0.7
363.15 K, x2 = 0.5	743.1	–	0.62
363.15 K, x2 = 0.6001	749.2	–	0.55
363.15 K, x2 = 0.7005	756.9	–	0.48
363.15 K, x2 = 0.8001	767	–	0.4
363.15 K, x2 = 0.8999	780.4	–	0.33
373.15 K, x2 = 0	717.5	–	0.87
373.15 K, x2 = 0.1002	720	–	0.81
373.15 K, x2 = 0.2	722.9	–	0.76
373.15 K, x2 = 0.3018	726.3	–	0.69
373.15 K, x2 = 0.4001	730.3	–	0.64
373.15 K, x2 = 0.5	735.1	–	0.56
373.15 K, x2 = 0.6001	741	–	–
373.15 K, x2 = 0.7005	748.5	–	–
373.15 K, x2 = 0.8001	758	–	–

Settings	surface tension liquid-gas [mN/m]
x2 = 0	27.3
x2 = 0.4001	27.3
x2 = 0.5	27.5
x2 = 0.6001	27.6
x2 = 0.7006	27.7
x2 = 0.8001	27.8
x2 = 0.8999	28
